These results are taken from patent US20220125778A1 (priority 2019, published 2022).

In this test the target is Purified bacterial β-glucuronidases (Purified GUS) (UniProt P05804). The format is biochemical. As to conditions: read-out: Purified GUS Orignial IC50.
Sequence of Purified bacterial β-glucuronidases (Purified GUS) (P05804 whole entry): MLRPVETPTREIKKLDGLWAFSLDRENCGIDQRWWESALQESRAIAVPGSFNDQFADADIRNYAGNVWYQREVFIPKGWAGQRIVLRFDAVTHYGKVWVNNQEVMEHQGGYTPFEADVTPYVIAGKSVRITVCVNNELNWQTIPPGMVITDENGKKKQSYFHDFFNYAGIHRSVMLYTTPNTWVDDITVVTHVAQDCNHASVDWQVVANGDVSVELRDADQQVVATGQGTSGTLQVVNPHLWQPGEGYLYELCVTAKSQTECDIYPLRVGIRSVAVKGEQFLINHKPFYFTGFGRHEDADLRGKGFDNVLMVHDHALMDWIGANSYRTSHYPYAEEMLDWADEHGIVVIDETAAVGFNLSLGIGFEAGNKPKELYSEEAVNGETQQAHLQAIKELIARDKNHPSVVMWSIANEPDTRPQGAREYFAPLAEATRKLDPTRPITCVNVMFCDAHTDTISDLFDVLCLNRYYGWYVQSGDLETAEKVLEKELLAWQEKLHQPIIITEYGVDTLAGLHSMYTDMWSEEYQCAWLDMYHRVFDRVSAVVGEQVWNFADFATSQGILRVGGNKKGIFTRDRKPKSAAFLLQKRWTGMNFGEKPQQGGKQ

One may read the IC50 as the concentration needed to halve the response being measured. As to `Cc1cc(C)c2[nH]c(=O)c(CN(CCO)C(=O)Cc3ccccc3Br)cc2c1` [Ex. 4, 2-(2-bromophenyl)-N-[(6,8-dimethyl-2-oxo-1H-quinolin-3-yl)methyl]-N-(2-hydroxyethyl)acetamide], the IC50 is 0.92 µM.
To `Cc1cc(C)c2[nH]c(=O)c(CN(CCO)C(=O)Cc3ccccc3Cl)cc2c1` [Ex. 8, 2-(2-chlorophenyl)-N-[(6,8-dimethyl-2-oxo-1H-quinolin-3-yl)methyl]-N-(2-hydroxyethyl)acetamide] belongs 0.57 µM; to `COc1ccc(Br)c(CC(=O)N(CCO)Cc2cc3cc(C)cc(C)c3[nH]c2=O)c1` [Ex. 12, 2-(2-bromo-5-methoxy-phenyl)-N-[(6,8-dimethyl-2-oxo-1H-quinolin-3-yl)methyl]-N-(2-hydroxyethyl)acetamide], 0.58 µM.
